Literature values as cited in patent US5874104A, “Treatment of systemic fungal infections with phospholipid particles encapsulating polyene antibiotics” (NeXstar Pharmaceuticals, Inc., priority 1995, dated 1999).

Legend:
patients = conditions: for Toxicity to cells of the patient: human, in vivo
renal tubules = conditions: mammals
[1] = saline as suspending solution; Jurgens et al.
host = conditions: in vivo

Compound | Clinical toxicity (patients; at therapeutic dose levels) | Toxicity to cells of the patient (patients) | Toxicity for membrane systems (renal tubules) | Precipitation in saline [1] | Host toxicity of liposomal drug (host)
C[C@@H]1[C@H](O)[C@@H](C)/C=C/C=C/C=C/C=C/C=C/C=C/C=C/[C@H](O[C@@H]2O[C@H](C)[C@@H](O)[C@H](N)[C@@H]2O)C[C@@H]2O[C@](O)(C[C@@H](O)C[C@@H](O)[C@H](O)CC[C@@H](O)C[C@@H](O)CC(=O)O[C@H]1C)C[C@H](O)[C@H]2C(=O)O [amphotericin B] | acute hemolytic crisis and eventual kidney failure | acute and chronic toxicity | greater for certain membrane systems, such as the renal tubules | precipitation | –
C[C@@H]1[C@H](O)[C@@H](C)/C=C/C=C/CC/C=C/C=C/C=C/C=C/C(O[C@H]2O[C@H](C)[C@@H](O)[C@H](N)[C@@H]2O)CC2O[C@](O)(CC(O)C(O)CCC(O)CC(O)CC(O)CC(=O)O[C@H]1C)CC(O)C2C(=O)O (stereo partly drawn) [nystatin] | – | acute and chronic toxicity | – | – | –
liposomal Amphotericin B | – | – | – | – | decreased host toxicity
